In patent publication US20260158014A1, “METHODS OF ADMINISTERING VOXELOTOR” (Global Blood Therapeutics, Inc., priority 2021, published 2026):

Key:
CYP3A4 = CYP3A4 (Homo sapiens, UniProt P08684); test: Clinical probe-substrate DDI study: midazolam; settings: healthy subjects
Experimental: The effect of voxelotor on the pharmacokinetics (PK) of a single dose of caffeine, warfarin sodium, omeprazole, and midazolam hydrochloride, which are probe substrates for cytochrome P450 (CYP)1A2, CYP2C9, CYP2C19, and CYP3A4, respectively, were studied in healthy subjects. During Period 1, subjects received a single dose of caffeine 100 mg, warfarin sodium 10 mg+vitamin K 10 mg, omeprazole 20 mg, and midazolam hydrochloride 2 mg on Day 1. During Period 2, subjects received voxelotor 900 mg QD on Days 1 and 2 followed by 600 mg QD on Day 3, a single dose of caffeine 100 mg, warfarin sodium 10 mg+vitamin K 10 mg, omeprazole 20 mg, and midazolam hydrochloride 2 mg on Day 4, and voxelotor 600 mg QD on Days 4 through 7.
Whole blood and plasma concentrations of voxelotor and plasma concentrations of caffeine, paraxanthine, S-warfarin, omeprazole, 5-hydroxyomeprazole, midazolam, and 1-hydroxymidazolam were determined using validated assays.

P-gp = P-gp (Homo sapiens, UniProt P08183); test: Clinical DDI: voxelotor on digoxin; settings: in vivo
Sequence of P-gp (P08183 whole entry): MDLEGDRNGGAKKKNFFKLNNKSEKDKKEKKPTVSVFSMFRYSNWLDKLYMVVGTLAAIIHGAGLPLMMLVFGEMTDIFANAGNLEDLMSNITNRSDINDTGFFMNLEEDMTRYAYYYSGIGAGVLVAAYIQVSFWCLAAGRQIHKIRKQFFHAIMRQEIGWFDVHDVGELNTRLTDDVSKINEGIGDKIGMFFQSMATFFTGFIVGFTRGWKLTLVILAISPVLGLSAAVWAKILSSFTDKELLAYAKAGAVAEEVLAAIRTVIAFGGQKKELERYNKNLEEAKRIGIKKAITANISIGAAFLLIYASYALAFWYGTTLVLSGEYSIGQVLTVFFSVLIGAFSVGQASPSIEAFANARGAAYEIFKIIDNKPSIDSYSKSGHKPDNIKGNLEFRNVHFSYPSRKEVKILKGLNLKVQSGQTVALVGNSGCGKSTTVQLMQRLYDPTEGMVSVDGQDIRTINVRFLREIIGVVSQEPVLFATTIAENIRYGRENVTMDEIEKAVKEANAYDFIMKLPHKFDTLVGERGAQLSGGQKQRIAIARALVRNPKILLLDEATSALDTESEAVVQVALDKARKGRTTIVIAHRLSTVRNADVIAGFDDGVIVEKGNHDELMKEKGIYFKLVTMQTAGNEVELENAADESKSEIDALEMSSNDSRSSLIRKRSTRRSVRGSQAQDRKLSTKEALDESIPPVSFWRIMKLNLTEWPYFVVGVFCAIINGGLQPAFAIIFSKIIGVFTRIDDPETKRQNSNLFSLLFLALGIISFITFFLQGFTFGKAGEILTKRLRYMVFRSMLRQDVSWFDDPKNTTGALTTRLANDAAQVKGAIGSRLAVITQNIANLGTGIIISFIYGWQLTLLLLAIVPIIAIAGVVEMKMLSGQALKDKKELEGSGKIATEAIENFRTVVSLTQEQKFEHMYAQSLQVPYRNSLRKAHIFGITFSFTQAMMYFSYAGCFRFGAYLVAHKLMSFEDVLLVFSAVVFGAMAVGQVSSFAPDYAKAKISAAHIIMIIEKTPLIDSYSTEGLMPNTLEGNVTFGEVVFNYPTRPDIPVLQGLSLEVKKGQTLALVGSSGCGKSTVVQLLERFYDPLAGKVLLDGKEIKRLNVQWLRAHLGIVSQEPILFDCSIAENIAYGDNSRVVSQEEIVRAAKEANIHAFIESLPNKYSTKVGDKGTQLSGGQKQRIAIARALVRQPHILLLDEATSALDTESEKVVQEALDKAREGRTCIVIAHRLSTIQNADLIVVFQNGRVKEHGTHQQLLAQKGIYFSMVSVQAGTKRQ

[1] = voxelotor 900 mg QD days 1-2, then 600 mg QD, midazolam hydrochloride 2 mg single dose

Sequence of CYP3A4 (P08684 whole entry): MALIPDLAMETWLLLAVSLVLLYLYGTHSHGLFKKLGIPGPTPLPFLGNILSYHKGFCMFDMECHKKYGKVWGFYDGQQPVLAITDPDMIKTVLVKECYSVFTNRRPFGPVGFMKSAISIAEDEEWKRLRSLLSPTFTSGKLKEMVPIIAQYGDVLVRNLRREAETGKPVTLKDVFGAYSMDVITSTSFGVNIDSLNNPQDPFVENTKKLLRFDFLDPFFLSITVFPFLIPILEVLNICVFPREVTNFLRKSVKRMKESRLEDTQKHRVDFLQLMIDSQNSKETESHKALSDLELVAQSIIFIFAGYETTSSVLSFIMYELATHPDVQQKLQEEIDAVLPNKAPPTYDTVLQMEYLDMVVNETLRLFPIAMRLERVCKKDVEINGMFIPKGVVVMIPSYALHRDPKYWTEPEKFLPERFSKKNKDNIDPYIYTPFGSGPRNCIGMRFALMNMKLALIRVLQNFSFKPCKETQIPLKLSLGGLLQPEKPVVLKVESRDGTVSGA

For `OCc1ncc2n1-c1ccc(Cl)cc1C(c1ccccc1F)=NC2` [1′-hydroxy-midazolam], the “increase of overall exposure of midazolam metabolite in the presence of voxelotor” value (CYP3A4; [1]) was 75%.

With `Cc1ncc2n1-c1ccc(Cl)cc1C(c1ccccc1F)=NC2` [midazolam] the “observed exposure increase of midazolam with voxelotor” value (CYP3A4) was 1.6 fold and the “increase of overall exposure of midazolam in the presence of voxelotor” value (CYP3A4; [1]) was 63%.

For `C[C@H]1O[C@@H](O[C@H]2[C@@H](O)C[C@H](O[C@H]3[C@@H](O)C[C@H](O[C@H]4CC[C@@]5(C)[C@H](CC[C@@H]6[C@@H]5C[C@@H](O)[C@]5(C)[C@@H](C7=CC(=O)OC7)CC[C@]65O)C4)O[C@@H]3C)O[C@@H]2C)C[C@H](O)[C@@H]1O` [digoxin], the “effect of concomitant OXBRYTA on digoxin (P-gp substrate)” value (P-gp) was “did not alter digoxin to a clinically relevant extent”.
